Reference: patent US20240197680A1, “VORUCICLIB DOSING REGIMENS AND METHODS OF TREATMENT INCLUDING THE SAME” (MEI Pharma, Inc., priority 2021, published 2024)
Read-outs that look alike come from different tables or passages of the source.

Experiments:
Format in all cases: physicochemical
[1] = pKa of voruciclib malonate
[2] = Stability of voruciclib malonate Batch 02MEI06-01-107; design: key to Organic Impurities by HPLC: RRT 1.05: —: below reporting threshold
From the text: The formulation contains colloidal silicon dioxide. The manufacturing process for this batch was similar to that described in Example 10. Stability study samples were packaged in the containers described in Example 9.

[3] = Gelling in aqueous media; conditions: in water or aqueous buffers across the pH range
Procedure: Voruciclib can form a gel when dissolved in various media, depending on the other chemicals present. […] In general, voruciclib was more prone to gel at suspension concentrations >5 mg/mL and solubilities >0.5 mg/mL.

[4] = pH range solubility in biorelevant media
Procedure: In general, voruciclib was more prone to gel at suspension concentrations >5 mg/mL and solubilities >0.5 mg/mL.

[5] = Hygroscopicity of voruciclib malonate

CN1CC[C@@H](c2c(O)cc(O)c3c(=O)cc(-c4ccc(C(F)(F)F)cc4Cl)oc23)[C@@H]1CO.O=C(O)CC(=O)O [Voruciclib Malonate, (2R,3S)-3-(2-(2-chloro-4-(trifluoromethyl)phenyl)-5,7-dihydroxy-4-oxo-4H-chromen-8-yl)-2-(hydroxymethyl)-1-methylpyrrolidin-1-ium-2-carboxyacetate]
pKa ([1]; first value listed): 6.46 | pKa ([1]; second value listed): 9.59 | pKa ([1]; third value listed): 12.1 | changes observed after storage ([2]; 6-months at 25° C./60% RH or 6-months at 40° C./75% RH): No significant changes | Appearance by visual inspection ([2]; 25° C./60% RH, 1 months): Light | Assay by HPLC (% w/w, as is) ([2]; 25° C./60% RH, 1 months): 96.8 % w/w | Organic Impurities by HPLC: RRT 0.83 ([2]; 25° C./60% RH, 1 months): 0.06 % area | Organic Impurities by HPLC: RRT 0.97 ([2]; 25° C./60% RH, 1 months): 0.55 % area | Organic Impurities by HPLC: RRT 0.99 ([2]; 25° C./60% RH, 1 months): 0.59 % area | Organic Impurities by HPLC: RRT 1.05 ([2]; 25° C./60% RH, 1 months): 0.09 % area | Organic Impurities by HPLC: RRT 1.06 ([2]; 25° C./60% RH, 1 months): 0.08 % area | Purity by HPLC ([2]; 25° C./60% RH, 1 months): 98.6 % area | Total Impurities ([2]; 25° C./60% RH, 1 months): 1.38 % area | Water Content by KF ([2]; 25° C./60% RH, 1 months): 0.47 % w/w | XRPD ([2]; 25° C./60% RH, 1 months): Crystalline | Appearance by visual inspection ([2]; 25° C./60% RH, 3 months): Light | Assay by HPLC (% w/w, as is) ([2]; 25° C./60% RH, 3 months): 97.3 % w/w | Organic Impurities by HPLC: RRT 0.83 ([2]; 25° C./60% RH, 3 months): 0.06 % area | Organic Impurities by HPLC: RRT 0.97 ([2]; 25° C./60% RH, 3 months): 0.56 % area | Organic Impurities by HPLC: RRT 0.99 ([2]; 25° C./60% RH, 3 months): 0.59 % area | Organic Impurities by HPLC: RRT 1.05 ([2]; 25° C./60% RH, 3 months): 0.06 % area | Organic Impurities by HPLC: RRT 1.06 ([2]; 25° C./60% RH, 3 months): 0.08 % area | Purity by HPLC ([2]; 25° C./60% RH, 3 months): 98.7 % area | Total Impurities ([2]; 25° C./60% RH, 3 months): 1.36 % area | Water Content by KF ([2]; 25° C./60% RH, 3 months): 0.18 % w/w | XRPD ([2]; 25° C./60% RH, 3 months): Crystalline | Appearance by visual inspection ([2]; 25° C./60% RH, 6 months): Light | Assay by HPLC (% w/w, as is) ([2]; 25° C./60% RH, 6 months): 97.7 % w/w | Organic Impurities by HPLC: RRT 0.83 ([2]; 25° C./60% RH, 6 months): 0.05 % area | Organic Impurities by HPLC: RRT 0.97 ([2]; 25° C./60% RH, 6 months): 0.52 % area | Organic Impurities by HPLC: RRT 0.99 ([2]; 25° C./60% RH, 6 months): 0.58 % area | Organic Impurities by HPLC: RRT 1.05 ([2]; 25° C./60% RH, 6 months): 0.05 % area | Organic Impurities by HPLC: RRT 1.06 ([2]; 25° C./60% RH, 6 months): 0.08 % area | Purity by HPLC ([2]; 25° C./60% RH, 6 months): 98.7 % area | Total Impurities ([2]; 25° C./60% RH, 6 months): 1.32 % area | Water Content by KF ([2]; 25° C./60% RH, 6 months): 0.36 % w/w | XRPD ([2]; 25° C./60% RH, 6 months): Crystalline | Appearance by visual inspection ([2]; 25° C./60% RH, Initial): Pale | Assay by HPLC (% w/w, as is) ([2]; 25° C./60% RH, Initial): 96.9 % w/w | Organic Impurities by HPLC: RRT 0.83 ([2]; 25° C./60% RH, Initial): 0.06 % area | Organic Impurities by HPLC: RRT 0.97 ([2]; 25° C./60% RH, Initial): 0.55 % area | Organic Impurities by HPLC: RRT 0.99 ([2]; 25° C./60% RH, Initial): 0.62 % area | Organic Impurities by HPLC: RRT 1.05 ([2]; 25° C./60% RH, Initial): 0.15 % area | Organic Impurities by HPLC: RRT 1.06 ([2]; 25° C./60% RH, Initial): 0.11 % area | Purity by HPLC ([2]; 25° C./60% RH, Initial): 98.5 % area | Total Impurities ([2]; 25° C./60% RH, Initial): 1.53 % area | Water Content by KF ([2]; 25° C./60% RH, Initial): 0.56 % w/w | XRPD ([2]; 25° C./60% RH, Initial): Crystalline | Appearance ([2]; 40° C./75% RH, 1 months): Light | Assay by HPLC (% w/w. as is) ([2]; 40° C./75% RH, 1 months): 96.4 % w/w | Organic Impurities by HPLC: RRT 0.83 ([2]; 40° C./75% RH, 1 months): 0.06 % Area | Organic Impurities by HPLC: RRT 0.97 ([2]; 40° C./75% RH, 1 months): 0.56 % Area | Organic Impurities by HPLC: RRT 0.99 ([2]; 40° C./75% RH, 1 months): 0.58 % Area | Organic Impurities by HPLC: RRT 1.05 ([2]; 40° C./75% RH, 1 months): 0.06 % Area | Organic Impurities by HPLC: RRT 1.06 ([2]; 40° C./75% RH, 1 months): 0.08 % Area | Purity by HPLC ([2]; 40° C./75% RH, 1 months): 98.7 % area | Total Impurities ([2]; 40° C./75% RH, 1 months): 1.33 % area | Water Content by KF ([2]; 40° C./75% RH, 1 months): 0.44 % w/w | XRPD ([2]; 40° C./75% RH, 1 months): Crystalline | Appearance ([2]; 40° C./75% RH, 3 months): Light | Assay by HPLC (% w/w. as is) ([2]; 40° C./75% RH, 3 months): 97.3 % w/w | Organic Impurities by HPLC: RRT 0.83 ([2]; 40° C./75% RH, 3 months): 0.06 % Area | Organic Impurities by HPLC: RRT 0.97 ([2]; 40° C./75% RH, 3 months): 0.56 % Area | Organic Impurities by HPLC: RRT 0.99 ([2]; 40° C./75% RH, 3 months): 0.59 % Area | Organic Impurities by HPLC: RRT 1.05 ([2]; 40° C./75% RH, 3 months): — | Organic Impurities by HPLC: RRT 1.06 ([2]; 40° C./75% RH, 3 months): 0.08 % Area | Purity by HPLC ([2]; 40° C./75% RH, 3 months): 98.7 % area | Total Impurities ([2]; 40° C./75% RH, 3 months): 1.29 % area | Water Content by KF ([2]; 40° C./75% RH, 3 months): 0.14 % w/w | XRPD ([2]; 40° C./75% RH, 3 months): Crystalline | Appearance ([2]; 40° C./75% RH, 6 months): Light | Assay by HPLC (% w/w. as is) ([2]; 40° C./75% RH, 6 months): 97.5 % w/w | Organic Impurities by HPLC: RRT 0.83 ([2]; 40° C./75% RH, 6 months): 0.05 % Area | Organic Impurities by HPLC: RRT 0.97 ([2]; 40° C./75% RH, 6 months): 0.52 % Area | Organic Impurities by HPLC: RRT 0.99 ([2]; 40° C./75% RH, 6 months): 0.58 % Area | Organic Impurities by HPLC: RRT 1.05 ([2]; 40° C./75% RH, 6 months): — | Organic Impurities by HPLC: RRT 1.06 ([2]; 40° C./75% RH, 6 months): 0.08 % Area | Purity by HPLC ([2]; 40° C./75% RH, 6 months): 98.8 % area | Total Impurities ([2]; 40° C./75% RH, 6 months): 1.24 % area | Water Content by KF ([2]; 40° C./75% RH, 6 months): 0.46 % w/w | XRPD ([2]; 40° C./75% RH, 6 months): Crystalline | Appearance ([2]; 40° C./75% RH, Initial): Pale | Assay by HPLC (% w/w. as is) ([2]; 40° C./75% RH, Initial): 96.9 % w/w | Organic Impurities by HPLC: RRT 0.83 ([2]; 40° C./75% RH, Initial): 0.06 % Area | Organic Impurities by HPLC: RRT 0.97 ([2]; 40° C./75% RH, Initial): 0.55 % Area | Organic Impurities by HPLC: RRT 0.99 ([2]; 40° C./75% RH, Initial): 0.62 % Area | Organic Impurities by HPLC: RRT 1.05 ([2]; 40° C./75% RH, Initial): 0.15 % Area | Organic Impurities by HPLC: RRT 1.06 ([2]; 40° C./75% RH, Initial): 0.11 % Area | Purity by HPLC ([2]; 40° C./75% RH, Initial): 98.5 % area | Total Impurities ([2]; 40° C./75% RH, Initial): 1.53 % area | Water Content by KF ([2]; 40° C./75% RH, Initial): 0.56 % w/w | XRPD ([2]; 40° C./75% RH, Initial): Crystalline | gel formation [3]: does not form a gel | solubility ([4]; FEDGAS biorelevant medium, pH 3, fassgf or other biorelevant, thermodynamic from solid, pH 3.0 (FEDGAS), late stage of stomach emptying, read-out: Solubility): 11300 µg/mL | solubility ([4]; FEDGAS biorelevant medium, pH 4.5, fassgf or other biorelevant, thermodynamic from solid, pH 4.5 (FEDGAS), mid stage of stomach emptying, read-out: Solubility): 4350 µg/mL | solubility ([4]; FEDGAS biorelevant medium, pH 6, fassgf or other biorelevant, thermodynamic from solid, pH 6.0 (FEDGAS), early stage of stomach emptying, read-out: Solubility): 2880 µg/mL | solubility ([4]; FaSSGF biorelevant medium, pH 1.6, fassgf or other biorelevant, thermodynamic from solid, pH 1.6 (FaSSGF), Stomach after glass of water, tested in duplicate, read-out: Solubility): > 13400 µg/mL | solubility ([4]; FaSSIF biorelevant medium, pH 6.5, fassif, thermodynamic from solid, pH 6.5 (FaSSIF), Upper intestine after a glass of water, read-out: Solubility): 230 µg/mL | solubility ([4]; FeSSIF biorelevant medium, pH 5, fessif, thermodynamic from solid, pH 5.0 (FeSSIF), Upper intestine after a meal, read-out: Solubility): < 4 µg/mL | solubility ([4]; pH 1.6 (FaSSGF), Stomach after glass of water, tested in duplicate): 11050 µg/mL | Hygroscopicity [5]: Non-hygroscopic | Hygroscopicity ([5]; listed as Form 1): non-hygroscopic
